Data on two compounds can be found in patent US10450317B2, “Notch pathway signaling inhibitor compounds” (Eli Lilly and Company, priority 2015, dated 2019).

The test system of experiment [1] is hAtoh1. Briefly: Induction of hAtoh1 expression in human tumor cell line LS174T (qPCR). It counts as cell-based. The conditions noted are these: LS174T cells, 72 hours, read-out: IC50 (relative expression of hAtoh1). On the procedure:
To evaluate potency of Compounds 1, Isomer 2 and 2, Isomer 2 in their ability to induce hAtoh1 expression, a human tumor cell line is utilized. Endogenous Notch signaling regulation for this cell line is similar to that in the inner ear. Generally, this assay is carried out following principles in Kazanjian et al., Gastroenterology, 2010, 139(3): 918-928 and Supplementary Materials and Methods.
Generally, standard cell culture techniques are used. Low passage human colorectal adenocarcinoma cell line LS174T (ATCC CL-188) maintained in Growth Medium (MEM 10% FBS) is plated 10,000 cells in 100 μl Assay Medium (MEM 1% FBS) per well into 96-well tissue culture treated plates. […]
To quantify the expression of hair cell markers from the […], qPCR probes to detect hAtoh1 or TBP expression in a single two-color multiplex reaction is carried out. […] Relative gene expression between treatment groups is analyzed using the ΔΔCT method and replicate measurements are averaged.
Four separate assays are carried out to obtain IC50 values for each test compound. The IC50 value is determined by fitting concentration response data to “log(antagonist) vs. response (three parameter)” model using GraphPad Prism® software for 12 doses across a concentration range of 4.0E-11 to 1.0E-6 M with 108 total points analyzed for each compound.
Background: Quantitative PCR measures a nucleic acid by following its amplification.

The test system of experiment [2] is hair cell markers Atoh1, Pou4f3, Myo7A in gentamicin-damaged organ of Corti explants. Briefly: Organ of Corti explant, gene expression analysis after ototoxic (gentamicin) damage. The format is cell-based, mice. The conditions noted are these: 5 μM after gentamicin (100 μM) damage, n = 11. On the procedure:
A variation of the organ of Corti organotypic explant culture is used to model hair cell regeneration in response to subsequent compound treatment after ototoxic damage. This damage model is carried out according to the method described in Korrapati et al., PLOSOne, 2013, 8(8), e73276 where a 95% reduction in mid-apical hair cells was reported. On Day 0, to damage and selectively kill hair cells within the organ of Corti explant, aminoglycoside treatment (gentamicin (100 μM)) is added for 18-24 hours. On Day 1, gentamicin is removed and treatment with Compound 1, Isomer 2 and Compound 2, Isomer 2 at 5 μM began. Explant culture continues for 4 days total at which point the culture is prepared for the qRT-PCR protocol described above. Visible confirmation of gentamicin-induced damage is easily observed between cultures treated with negative control compounds. However, quantitative measurement for the response to Compound 1, Isomer 2 and Compound 2, Isomer 2 treatment following ototoxic damage obtained by qRT-PCR measured increases in gene expression for prosensory hair cell markers Atoh1 and Pou4f3 and the hair cell marker Myo7A.
Data represent the percent increase in gene expression relative to negative control-treated samples with the gentamicin-induced hair cell damage. (*, significant difference from negative control, p<0.05)

In experiment [3] the test system is hair cell generation markers Atoh1, Pou4f3, Myo7a in organ of Corti explants. Briefly: Organ of Corti explant assay, hair cell marker gene expression by qRT-PCR. It counts as cell-based, mice. Particulars: 1 μM, fold-induction relative to negative control, ± SEM. On the procedure:
Generally, organ of Corti organotypic explant culture is carried out on Day 0 according to the method described in Parker et al., Journal of Visualized Experiments, 2010, (36), e1685. Explant culture is carried out for 4-7 days at which point the culture is either prepared for cellular lysis for qRT-PCR, or tissue fixation for immunohistochemistry.
The bulla and surrounding tissue from the petrous portion of the temporal bone are removed from 1 to 4 day-old postnatal mice (transgenic strain: Atoh1-driven nGFP; Lumpkin E A, et al., Gene Expr Patterns, 2003, (36):389-95) of both sexes. Organs of Corti are dissected in Hanks solution, the spiral ligament is removed and the explants are placed on cover slips coated with poly-L-ornithine (0.01%, Sigma) and laminin ([…], Becton Dickinson) to obtain a preparation with a flat cochlear surface. Each cochlear explant is then placed in a single well of a 24 well plate (Falcon) and cultured in DMEM (Invitrogen) with 5% fetal bovine serum, 5% horse serum, and penicillin-streptomycin (LifeTechnologies). Experimental compounds are added with medium on Day 0 and replaced every 2-3 days. All cultures are maintained in a 5% CO2 humidified incubator at 37° C.
RNA Extraction is carried out by lysing the explant tissue with 350 μl RLT Plus buffer (Qiagen) per well, and total RNA is purified by RNeasy® Plus Mini Kit (Qiagen). cDNA synthesis is carried out with the SuperScript® III First-Strand Synthesis System (LifeTechnologies) using random hexamers. To quantify the induction of hair cell marker expression, qPCR is performed with TaqMan Gene Expression Master Mix (LifeTechnologies, 4369016) and probes to detect genes of interest (e.g. […]; Assay ID Mm00476035_s1, Pou4f3; Assay ID Mm04213795_s1 and Myo7a; Assay ID Mm01274015_m1, LifeTechnologies) and an endogenous control gene, Tbp (Assay ID Mm00446971_m1, LifeTechnologies). Relative gene expression between treatment groups is analyzed using the ΔΔCT method and replicate measurements are averaged. Experiments are carried out in triplicate, at a minimum, and reported as a grand mean.
Data (±SEM) represent the fold-induction in gene expression relative to negative control-treated samples.

Structures are written as SMILES. Marks after values point to notes of the source that are not given here.

For the compound `COc1ccc2c(c1)N1CCC(C)(C)C1=CC(=O)C2NC(=O)[C@H](C)NC(=O)CCC(F)(F)F` (single isomer, unassigned) [Compound 1, Isomer 2], the IC50 in experiment [1] came to 0.0166 µM. Moreover, in experiment [2], the “% Induction Over Control-treated Damaged Organ of Corti, Atoh1 (Mean ± SEM)” value is reported as 242 ± 16; %; the “% Induction Over Control-treated Damaged Organ of Corti, Myo7A (Mean ± SEM)” value is given as 102 ± 18; 0.0522%; the “% Induction Over Control-treated Damaged Organ of Corti, Pou4f3 (Mean ± SEM)” value is recorded as 114 ± 25; <0.05* %. Further, in experiment [3], the “RQ of Atoh1 expression” value is given as 3.72 ± 0.54, the “RQ of Myo7a expression” value is listed as 1.73 ± 0.33 and the “RQ of Pou4f3 expression” value turned out to be 2.04 ± 0.35.

On to `C[C@H](NC(=O)CCC(F)(F)F)C(=O)NC1C(=O)C=C2N(CCC2(C)C)c2ncccc21` (single isomer, unassigned) [Compound 2, Isomer 2], for which the IC50 in experiment [1] was found to be 0.0543 µM. In experiment [2], the “% Induction Over Control-treated Damaged Organ of Corti, Atoh1 (Mean ± SEM)” value is reported as 169 ± 24; <0.05* %; the “% Induction Over Control-treated Damaged Organ of Corti, Myo7A (Mean ± SEM)” value is recorded as 52 ± 15; not signif. %; the “% Induction Over Control-treated Damaged Organ of Corti, Pou4f3 (Mean ± SEM)” value is on record as 28 ± 11; 0.0633%. Moreover, in experiment [3], the “RQ of Atoh1 expression” value came to 3.10 ± 0.69, the “RQ of Myo7a expression” value is 1.49 ± 0.22 and the “RQ of Pou4f3 expression” value amounted to 1.65 ± 0.25.

In general, IC50 refers to the concentration that inhibits the measured activity by half.
